Here are results for six compounds from ChEMBL document CHEMBL1146200, “In vitro activity of aurein 1.2 alone and in combination with antibiotics against gram-positive nosocomial cocci” (Antimicrob Agents Chemother, 2007).

Converted amounts (≈) assume the structure as drawn. Non-standard residues stand in square brackets, D forms with d. Residues, ends and D or L forms follow the SMILES beside them. Phg = N[C@H](C(=O)O)c1ccccc1

Data set [1] deals with Staphylococcus aureus. The data set is described as follows: Antimicrobial activity against […] Staphylococcus aureus ATCC 29213. The format is functional. The following applies: for MIC50 / MIC90: Staphylococcus aureus, ATCC 29213.
The test system of data set [2] is Staphylococcus aureus. The data set is described as follows: Antimicrobial activity against […] Staphylococcus aureus ATCC 43300. The class given is functional. To be noted: for MIC50 / MIC90: Staphylococcus aureus, ATCC 43300.
The test system of data set [3] is Enterococcus faecalis. The data set is described as follows: Antimicrobial activity against vancomycin-susceptible Enterococcus faecalis ATCC 29212. The class given is functional. The following applies: for MIC50 / MIC90: Enterococcus faecalis, ATCC 29212.
Data set [4] has as its system Enterococcus faecalis. The data set is described as follows: Antimicrobial activity against vancomycin-resistant Enterococcus faecalis ATCC 51299. The format is functional. The following applies: for MIC50 / MIC90: Enterococcus faecalis, ATCC 51299.
In another data set the test system is Streptococcus pyogenes. In words: Antimicrobial activity against Streptococcus pyogenes ATCC 19615. To be noted: for MIC50 / MIC90: Streptococcus pyogenes, ATCC 19615. The class given is functional.
A further data set relates to A549. In words: Cytotoxicity against human A549 cells. The format is cell-based.

The MIC50 is an inhibitory concentration at the 50% level, which refers to growth in some studies and to a panel of isolates in others. Higher therefore signals weaker potency. For orientation: MIC90 means an inhibitory concentration at the 90% level, which refers to growth in some studies and to a panel of isolates in others. `CC[C@H](C)[C@H](NC(=O)[C@H](CCCCN)NC(=O)[C@H](CCCCN)NC(=O)[C@@H](NC(=O)[C@@H](NC(=O)[C@H](CC(=O)O)NC(=O)[C@H](Cc1ccccc1)NC(=O)[C@H](CC(C)C)NC(=O)CN)[C@@H](C)CC)[C@@H](C)CC)C(=O)N[C@@H](C)C(=O)N[C@@H](CCC(=O)O)C(=O)N[C@@H](CO)C(=O)N[C@H](C(N)=O)c1ccccc1` (H-GLFDIIKKIAES[Phg]-NH2): the MBC50 came out at 8 µg/mL (≈ 5.46 µM) in the data set with Staphylococcus aureus [1]; 8 µg/mL (≈ 5.46 µM) in the data set on Staphylococcus aureus [2]; 16 µg/mL (≈ 10.9 µM) in the data set with Enterococcus faecalis [3]; 16 µg/mL (≈ 10.9 µM) in the data set with Enterococcus faecalis [4]; 4 µg/mL (≈ 2.73 µM) in the data set on Streptococcus pyogenes. Further, the MBC90 came to 16 µg/mL (≈ 10.9 µM) in the data set on Staphylococcus aureus [1]; 16 µg/mL (≈ 10.9 µM) with Staphylococcus aureus [2]; 32 µg/mL (≈ 21.8 µM) against Enterococcus faecalis [3]; 32 µg/mL (≈ 21.8 µM) in the data set with Enterococcus faecalis [4]; 8 µg/mL (≈ 5.46 µM) with Streptococcus pyogenes. Moreover, the MIC50 with Staphylococcus aureus [1] came out at 4 µg/mL (≈ 2.73 µM); in the data set on Staphylococcus aureus [2], 4 µg/mL (≈ 2.73 µM); in the data set with Enterococcus faecalis [3], 8 µg/mL (≈ 5.46 µM); with Enterococcus faecalis [4] it was 8 µg/mL (≈ 5.46 µM); against Streptococcus pyogenes, 2 µg/mL (≈ 1.36 µM). Moreover, the MIC90 is 8 µg/mL (≈ 5.46 µM) with Staphylococcus aureus [1]; 8 µg/mL (≈ 5.46 µM) against Staphylococcus aureus [2]; 16 µg/mL (≈ 10.9 µM) with Enterococcus faecalis [3]; 16 µg/mL (≈ 10.9 µM) in the data set with Enterococcus faecalis [4]; 4 µg/mL (≈ 2.73 µM) in the data set on Streptococcus pyogenes. The Activity in the data set on A549 came to 2%.
Consider `CC[C@H]1OC(=O)[C@H](C)[C@@H](O[C@H]2C[C@@](C)(OC)[C@@H](O)[C@H](C)O2)[C@H](C)[C@@H](O[C@@H]2O[C@H](C)C[C@H](N(C)C)[C@H]2O)[C@](C)(OC)C[C@@H](C)C(=O)[C@H](C)[C@@H](O)[C@]1(C)O` [CLARITHROMYCIN], for which the MBC50 against Staphylococcus aureus [1] was found to be 32 µg/mL (≈ 42.8 µM); in the data set with Staphylococcus aureus [2] it was 16 µg/mL (≈ 21.4 µM); against Enterococcus faecalis [3], 16 µg/mL (≈ 21.4 µM); with Enterococcus faecalis [4], 32 µg/mL (≈ 42.8 µM); in the data set on Streptococcus pyogenes it was 8 µg/mL (≈ 10.7 µM). The MIC50 with Staphylococcus aureus [1] was found to be 4 µg/mL (≈ 5.35 µM); in the data set with Staphylococcus aureus [2], 2 µg/mL (≈ 2.67 µM); with Enterococcus faecalis [3] it was 8 µg/mL (≈ 10.7 µM); in the data set on Enterococcus faecalis [4], 16 µg/mL (≈ 21.4 µM); in the data set with Streptococcus pyogenes, 2 µg/mL (≈ 2.67 µM). Besides, the MIC90 was 16 µg/mL (≈ 21.4 µM) with Staphylococcus aureus [1]; 8 µg/mL (≈ 10.7 µM) against Staphylococcus aureus [2]; 32 µg/mL (≈ 42.8 µM) with Enterococcus faecalis [3]; 64 µg/mL (≈ 85.6 µM) against Enterococcus faecalis [4]; 8 µg/mL (≈ 10.7 µM) with Streptococcus pyogenes. For the same compound, the MBC90 in the data set on Staphylococcus aureus [2] stood at 64 µg/mL (≈ 85.6 µM); against Enterococcus faecalis [3], 128 µg/mL (≈ 171 µM); with Streptococcus pyogenes, 32 µg/mL (≈ 42.8 µM).
`C[C@@H](O)[C@H]1C(=O)N2C(C(=O)O)=C(SCCNC=N)C[C@H]12` [IMIPENEM ANHYDROUS]: the MBC50 in the data set on Staphylococcus aureus [1] worked out at 64 µg/mL (≈ 214 µM); in the data set on Staphylococcus aureus [2] it was 4 µg/mL (≈ 13.4 µM); against Enterococcus faecalis [3] it was 16 µg/mL (≈ 53.4 µM); with Enterococcus faecalis [4], 32 µg/mL (≈ 107 µM); in the data set with Streptococcus pyogenes it was 1 µg/mL (≈ 3.34 µM). In addition, the MBC90 against Staphylococcus aureus [1] was determined as 256 µg/mL (≈ 855 µM); with Staphylococcus aureus [2], 16 µg/mL (≈ 53.4 µM); against Enterococcus faecalis [3] it was 64 µg/mL (≈ 214 µM); in the data set with Enterococcus faecalis [4], 128 µg/mL (≈ 428 µM); against Streptococcus pyogenes, 4 µg/mL (≈ 13.4 µM). In addition, the MIC50 worked out at 16 µg/mL (≈ 53.4 µM) against Staphylococcus aureus [1]; 1 µg/mL (≈ 3.34 µM) against Staphylococcus aureus [2]; 4 µg/mL (≈ 13.4 µM) with Enterococcus faecalis [3]; 16 µg/mL (≈ 53.4 µM) in the data set with Enterococcus faecalis [4]; 0.5 µg/mL (≈ 1.67 µM) against Streptococcus pyogenes. Besides, the MIC90 in the data set with Staphylococcus aureus [1] turned out to be 128 µg/mL (≈ 428 µM); against Staphylococcus aureus [2], 4 µg/mL (≈ 13.4 µM); against Enterococcus faecalis [3] it was 16 µg/mL (≈ 53.4 µM); in the data set on Enterococcus faecalis [4], 32 µg/mL (≈ 107 µM); in the data set with Streptococcus pyogenes, 1 µg/mL (≈ 3.34 µM).
On to `CC(=O)NC[C@H]1CN(c2ccc(N3CCOCC3)c(F)c2)C(=O)O1` [LINEZOLID], for which the MIC50 against Staphylococcus aureus [1] is 0.5 µg/mL (≈ 1.48 µM); with Staphylococcus aureus [2] it was 0.5 µg/mL (≈ 1.48 µM); in the data set with Enterococcus faecalis [3], 1 µg/mL (≈ 2.96 µM); in the data set on Enterococcus faecalis [4] it was 1 µg/mL (≈ 2.96 µM); against Streptococcus pyogenes it was 0.5 µg/mL (≈ 1.48 µM). Moreover, the MIC90 worked out at 2 µg/mL (≈ 5.93 µM) in the data set with Staphylococcus aureus [1]; 2 µg/mL (≈ 5.93 µM) with Staphylococcus aureus [2]; 2 µg/mL (≈ 5.93 µM) against Enterococcus faecalis [3]; 2 µg/mL (≈ 5.93 µM) in the data set on Enterococcus faecalis [4]; 1 µg/mL (≈ 2.96 µM) in the data set with Streptococcus pyogenes. Also, the MBC50 in the data set on Staphylococcus aureus [2] came out at 0.5 µg/mL (≈ 1.48 µM); in the data set on Enterococcus faecalis [3], 2 µg/mL (≈ 5.93 µM); in the data set on Enterococcus faecalis [4], 4 µg/mL (≈ 11.9 µM); in the data set with Streptococcus pyogenes, 1 µg/mL (≈ 2.96 µM). Also, the MBC90 was 2 µg/mL (≈ 5.93 µM) against Staphylococcus aureus [2], 4 µg/mL (≈ 11.9 µM) in the data set with Enterococcus faecalis [3] and 2 µg/mL (≈ 5.93 µM) in the data set on Streptococcus pyogenes.
Consider `CN(C)c1ccc(O)c2c1C[C@H]1C[C@H]3[C@H](N(C)C)C(O)=C(C(N)=O)C(=O)[C@@]3(O)C(O)=C1C2=O` [MINOCYCLINE], for which the MIC50 in the data set on Staphylococcus aureus [1] was 4 µg/mL (≈ 8.74 µM); with Staphylococcus aureus [2], 4 µg/mL (≈ 8.74 µM); in the data set with Enterococcus faecalis [3], 8 µg/mL (≈ 17.5 µM); in the data set on Enterococcus faecalis [4], 16 µg/mL (≈ 35 µM); in the data set on Streptococcus pyogenes, 4 µg/mL (≈ 8.74 µM). The MIC90 stood at 8 µg/mL (≈ 17.5 µM) against Staphylococcus aureus [1]; 8 µg/mL (≈ 17.5 µM) with Staphylococcus aureus [2]; 16 µg/mL (≈ 35 µM) in the data set on Enterococcus faecalis [3]; 32 µg/mL (≈ 69.9 µM) in the data set on Enterococcus faecalis [4]; 8 µg/mL (≈ 17.5 µM) with Streptococcus pyogenes. Besides, the MBC50 against Staphylococcus aureus [2] stood at 8 µg/mL (≈ 17.5 µM); in the data set on Enterococcus faecalis [3] it was 16 µg/mL (≈ 35 µM); against Streptococcus pyogenes, 8 µg/mL (≈ 17.5 µM). Besides, the figures for the MBC90 with Staphylococcus aureus [2], with Enterococcus faecalis [3] and with Streptococcus pyogenes were 32 µg/mL (≈ 69.9 µM), 64 µg/mL (≈ 140 µM) and 16 µg/mL (≈ 35 µM), respectively.
For `CN[C@H](CC(C)C)C(=O)N[C@H]1C(=O)N[C@@H](CC(N)=O)C(=O)N[C@H]2C(=O)N[C@H]3C(=O)N[C@H](C(=O)N[C@H](C(=O)O)c4cc(O)cc(O)c4-c4cc3ccc4O)[C@H](O)c3ccc(c(Cl)c3)Oc3cc2cc(c3O[C@@H]2O[C@H](CO)[C@@H](O)[C@H](O)[C@H]2O[C@H]2C[C@](C)(N)[C@H](O)[C@H](C)O2)Oc2ccc(cc2Cl)[C@H]1O` [VANCOMYCIN], the MBC50 in the data set with Staphylococcus aureus [1] came to 1 µg/mL (≈ 0.69 µM); against Staphylococcus aureus [2], 1 µg/mL (≈ 0.69 µM); in the data set on Enterococcus faecalis [3], 2 µg/mL (≈ 1.38 µM); in the data set with Enterococcus faecalis [4], 64 µg/mL (≈ 44.2 µM); in the data set with Streptococcus pyogenes, 1 µg/mL (≈ 0.69 µM). For the same compound, the MBC90 came out at 2 µg/mL (≈ 1.38 µM) with Staphylococcus aureus [1]; 2 µg/mL (≈ 1.38 µM) in the data set on Staphylococcus aureus [2]; 4 µg/mL (≈ 2.76 µM) in the data set on Enterococcus faecalis [3]; 256 µg/mL (≈ 177 µM) with Enterococcus faecalis [4]; 2 µg/mL (≈ 1.38 µM) against Streptococcus pyogenes. In addition, the MIC50 was 1 µg/mL (≈ 0.69 µM) against Staphylococcus aureus [1]; 1 µg/mL (≈ 0.69 µM) against Staphylococcus aureus [2]; 1 µg/mL (≈ 0.69 µM) against Enterococcus faecalis [3]; 32 µg/mL (≈ 22.1 µM) against Enterococcus faecalis [4]; 0.5 µg/mL (≈ 0.345 µM) against Streptococcus pyogenes. The MIC90 against Staphylococcus aureus [1] came to 2 µg/mL (≈ 1.38 µM); against Staphylococcus aureus [2] it was 2 µg/mL (≈ 1.38 µM); with Enterococcus faecalis [3] it was 2 µg/mL (≈ 1.38 µM); against Enterococcus faecalis [4] it was 64 µg/mL (≈ 44.2 µM); in the data set on Streptococcus pyogenes, 1 µg/mL (≈ 0.69 µM).
